Test results as given in PMC9457622, “Synthesis of Bio-Inspired 1,3-Diarylpropene Derivatives via Heck Cross-Coupling and Cytotoxic Evaluation on Breast Cancer Cells” (Molecules, 2022).
“Also recorded” adds a separate entry of the source.

Columns and labels:
Assay type in all cases: cell-based
[1] = tested on: MDA-MB-231 human breast cancer cell lines; assay: MTT proliferation (cytotoxicity) assay on MDA-MB-231 cells; details: for cytotoxicity against MDA-MB-231 (in words): 10-100 µM, 24-72 h; for cytotoxicity against MDA-MB-231 (in words) / IC50: MTT; for SI (selectivity index) MDA-MB-231: IC50 normal cells (MCF-10A) divided by IC50 MDA-MB-231; for IC50: Homo sapiens, MDA-MB-231
From the text: (§1) MCF-7 and MDA-MB-231 human breast cancer cell lines, as well as MCF-10A human normal breast cell lines, were used in this study. These cells were acquired from the American Type Culture Collection (Manassas, VA, USA). MCF-7 and MDAMB-231 cells were regularly cultured in Dulbecco’s Modified Eagle’s Medium (DMEM; Gibco, Waltham, MA, USA), and supplemented with 10% (v/v) foetal bovine serum (FBS; Gibco, Waltham, MA, USA) and 100 U/mL penicillin-streptomycin (PenStrep; Gibco, Waltham, MA, USA). MCF-10A cells were routinely cultured in DMEM/F12 (Gibco, Waltham, MA, USA) medium supplemented with 5% horse serum (Sigma-Aldrich, Burlington, MA, USA), 10 μg/mL of insulin (Sigma-Aldrich, Burlington, MA, USA), 20 ng/mL of human epidermal growth factor (hEGF; ThermoFisher, Waltham, MA, USA), 0.5 μg/mL of hydrocortisone (Sigma-Aldrich, Burlington, MA, USA) and 1 U/mL PenStrep. All cell lines were maintained in a humidified atmosphere with 5% CO2 at 37 °C.
(§2) The effects of the N-(2-cinnamylphenyl)amide products (i.e., isolated pure isomers) on MCF-7, MDA-MB-231 and MCF-10A were determined using a 3-(4,5-dimethylthiazol-2-yl)-2,5-diphenyltetrazolium bromide (MTT) proliferation assay. The cell lines were seeded in 96-well plates at a density of 1 × 10^4 cells/well and allowed to grow overnight for cell attachment. The cell lines were then treated with fresh assay medium, supplemented with increasing concentrations of tested compounds (10–100 µM) and incubated for 24–72 h at 37 °C. For this assay, the blank and negative controls used were the culture medium alone (without cells) and cells with culture medium only (untreated cells), respectively. […] At each incubation period (24, 48 and 72 h), 10 μL of MTT solution (5 mg/mL) was added to each well, and cells were further incubated for 4 h at 37 °C in 5% CO2. The solution mixture in each well was replaced with 100 μL of dimethyl sulfoxide (DMSO) to solubilise the MTT crystalline products. The optical density (O.D.) of each well was measured using a microplate reader (PowerWave-XS; Bio-Tek Instruments, Winooski, Vermont, USA) at 570 nm. The experiments were conducted in triplicate for each cell line.
(§3) The selectivity index (SI) was used to indicate the cytotoxic selectivity of the samples against cancer cells and normal cells. It was calculated from the IC50 of the samples in normal cells versus cancer cells. […] All data were analysed and presented as means standard deviation (±SD). Comparisons between each concentration of 18 samples were evaluated using Student’s t-test, where p < 0.05, p < 0.01 or p < 0.001 were considered as statistically significant relative to the untreated control cells.

[2] = tested on: MCF-7 human breast cancer cell lines; assay: MTT proliferation (cytotoxicity) assay on MCF-7 cells; details: for cytotoxicity against MCF-7 (in words): 10-100 µM, 24-72 h; for cytotoxicity against MCF-7 (in words) / IC50: MTT; for SI (selectivity index) MCF-7: IC50 normal cells (MCF-10A) divided by IC50 MCF-7; for IC50: Homo sapiens, MCF7
From the text: as §1, §2, §3

[3] = tested on: MCF-10A human normal breast cell lines; assay: MTT proliferation (cytotoxicity) assay on MCF-10A normal cells
From the text: as §1, §2, §3

In the case of `CCCCC(=O)Nc1ccccc1/C=C/Cc1ccc(OC)cc1` [Compound 6d, (E)-N-(2-(3-(4-Methoxyphenyl)prop-1-en-1-yl)phenyl)pentanamide], the “cytotoxicity against MDA-MB-231 (in words)” value [1] is reported as “inactive; also recorded: low growth inhibition”, the “SI (selectivity index) MDA-MB-231” value ([1]; 48 h) is reported as < 0.94 and the “SI (selectivity index) MDA-MB-231” value ([1]; 72 h) is reported as < 0.93. For the same compound, the IC50 ([1]; 24 h incubation) was > 100 µM, the IC50 ([1]; 48 h incubation) was > 100 µM and the IC50 ([1]; 72 h incubation) was > 100 µM. The “cytotoxicity against MCF-7 (in words)” value [2] was “low growth inhibition”, the “SI (selectivity index) MCF-7” value ([2]; 24 h) was > 1.06 and the “SI (selectivity index) MCF-7” value ([2]; 48 h) was 1.01. For the same compound, the “SI (selectivity index) MCF-7” value ([2]; 72 h) was 1.41, the IC50 ([2]; 24 h incubation) was 94 ± 1.26 µM and the IC50 ([2]; 48 h incubation) was 93.3 ± 2.15 µM. For the same compound, the IC50 ([2]; 72 h incubation) was 65.8 ± 7.33 µM, the IC50 ([3]; 24 h incubation) was > 100 µM and the IC50 ([3]; 48 h incubation) was 94.4 ± 9.71 µM. For the same compound, the IC50 ([3]; 72 h incubation) was 92.9 ± 8.71 µM.
`CCCCCC(=O)Nc1ccccc1/C=C/Cc1ccc(OC)cc1` [Compound 6e, (E)-N-(2-(3-(4-Methoxyphenyl)prop-1-en-1-yl)phenyl)hexanamide] was tested, and the “cytotoxicity against MDA-MB-231 (in words)” value [1] was “low growth inhibition”, the “SI (selectivity index) MDA-MB-231” value ([1]; 24 h) was < 0.81 and the “SI (selectivity index) MDA-MB-231” value ([1]; 48 h) was < 0.90. The “SI (selectivity index) MDA-MB-231” value ([1]; 72 h) was < 0.99, the IC50 ([1]; 24 h incubation) was > 100 µM and the IC50 ([1]; 48 h incubation) was > 100 µM. For the same compound, the IC50 ([1]; 72 h incubation) was > 100 µM, the “cytotoxicity against MCF-7 (in words)” value [2] was “low growth inhibition” and the “SI (selectivity index) MCF-7” value ([2]; 24 h) was < 0.81. For the same compound, the “SI (selectivity index) MCF-7” value ([2]; 48 h) was < 0.90, the “SI (selectivity index) MCF-7” value ([2]; 72 h) was < 0.99 and the IC50 ([2]; 24 h incubation) was > 100 µM. The IC50 ([2]; 48 h incubation) was > 100 µM, the IC50 ([2]; 72 h incubation) was > 100 µM and the IC50 ([3]; 24 h incubation) was 80.9 ± 7.58 µM. The IC50 ([3]; 48 h incubation) was 90.1 ± 8.8 µM and the IC50 ([3]; 72 h incubation) was 98.5 ± 2.6 µM.
`COc1ccc(C/C=C/c2ccccc2NC(=O)c2ccccc2C)cc1` [Compound 6i, (E)-N-(2-(3-(4-Methoxyphenyl)prop-1-en-1-yl)phenyl)-2-methylbenzamide] was tested, and the “SI (selectivity index) MDA-MB-231” value ([1]; 72 h) was > 1.36, the IC50 ([1]; 24 h incubation) was > 100 µM and the IC50 ([1]; 48 h incubation) was > 100 µM. The IC50 ([1]; 72 h incubation) was 73.8 ± 6.92 µM, the “SI (selectivity index) MCF-7” value ([2]; 72 h) was > 1.09 and the IC50 ([2]; 24 h incubation) was > 100 µM. For the same compound, the IC50 ([2]; 48 h incubation) was > 100 µM, the IC50 ([2]; 72 h incubation) was 91.8 ± 7.95 µM and the IC50 ([3]; 24 h incubation) was > 100 µM. The IC50 ([3]; 48 h incubation) was > 100 µM and the IC50 ([3]; 72 h incubation) was > 100 µM.
In the case of `CCCCC(=O)Nc1ccccc1C/C=C/c1ccc(OC)cc1` [Compound 7d, (E)-N-(2-(3-(4-Methoxyphenyl)allyl)phenyl)pentanamide], the “cytotoxicity against MDA-MB-231 (in words)” value [1] is reported as “inactive; also recorded: low growth inhibition”, the “SI (selectivity index) MDA-MB-231” value ([1]; 48 h) is reported as < 0.75 and the “SI (selectivity index) MDA-MB-231” value ([1]; 72 h) is reported as < 0.71. For the same compound, the IC50 ([1]; 24 h incubation) was > 100 µM, the IC50 ([1]; 48 h incubation) was > 100 µM and the IC50 ([1]; 72 h incubation) was > 100 µM. The “cytotoxicity against MCF-7 (in words)” value [2] was “low growth inhibition”, the “SI (selectivity index) MCF-7” value ([2]; 24 h) was > 1.70 and the “SI (selectivity index) MCF-7” value ([2]; 48 h) was 1.54. For the same compound, the “SI (selectivity index) MCF-7” value ([2]; 72 h) was 1.49, the IC50 ([2]; 24 h incubation) was 58.9 ± 1.81 µM and the IC50 ([2]; 48 h incubation) was 48.7 ± 3.46 µM. The IC50 ([2]; 72 h incubation) was 47.9 ± 2.96 µM, the SI value ([2]; abstract, time not stated, considered general toxicity) was < 2 and the IC50 ([3]; 24 h incubation) was > 100 µM. The IC50 ([3]; 48 h incubation) was 75 ± 8.58 µM and the IC50 ([3]; 72 h incubation) was 71.2 ± 9.25 µM.
In the case of `CCCCCC(=O)Nc1ccccc1C/C=C/c1ccc(OC)cc1` [Compound 7e, (E)-N-(2-(3-(4-Methoxyphenyl)allyl)phenyl)hexanamide], the “cytotoxicity against MDA-MB-231 (in words)” value [1] is reported as “inactive; also recorded: low growth inhibition”, the “SI (selectivity index) MDA-MB-231” value ([1]; 48 h) is reported as < 0.70 and the “SI (selectivity index) MDA-MB-231” value ([1]; 72 h) is reported as < 0.69. The IC50 ([1]; 24 h incubation) was > 100 µM, the IC50 ([1]; 48 h incubation) was > 100 µM and the IC50 ([1]; 72 h incubation) was > 100 µM. The “cytotoxicity against MCF-7 (in words)” value [2] was “low growth inhibition”, the “SI (selectivity index) MCF-7” value ([2]; 48 h) was < 0.70 and the “SI (selectivity index) MCF-7” value ([2]; 72 h) was 0.78. The IC50 ([2]; 24 h incubation) was > 100 µM, the IC50 ([2]; 48 h incubation) was > 100 µM and the IC50 ([2]; 72 h incubation) was 88.5 ± 2.37 µM. The IC50 ([3]; 24 h incubation) was > 100 µM, the IC50 ([3]; 48 h incubation) was 70.3 ± 1.88 µM and the IC50 ([3]; 72 h incubation) was 69.18 ± 0.01 µM.
With `COc1ccc(/C=C/Cc2ccccc2NC(=O)c2ccccc2C)cc1` [Compound 7i, (E)-N-(2-(3-(4-Methoxyphenyl)allyl)phenyl)-2-methylbenzamide] the “cytotoxicity against MDA-MB-231 (in words)” value [1] was “low growth inhibition” and the “cytotoxicity against MCF-7 (in words)” value [2] was “low growth inhibition”.
